# Source: publication PMC7156612, “Olinciguat, an Oral sGC Stimulator, Exhibits Diverse Pharmacology Across Preclinical Models of Cardiovascular, Metabolic, Renal, and Inflammatory Disease” (Frontiers in Pharmacology, 2020)
# “Also recorded” adds a separate entry of the source.
# Key:
# obese ZSF1 rats [1] = test: ZSF1 rat model of metabolic syndrome and diabetic nephropathy; format: in vivo
# Method: Lean (n=8, 370–420 g, 15 weeks) and obese (n=32, 500–630 g, 15 weeks) male ZSF1 rats were studied. Rats were treated with enalapril to reflect standard of care drug treatment for patients with diabetic kidney disease. Dose modeling based on allometric scaling relationships estimated that a 10 mg/day enalapril dose in humans (within usual dose range of 10–40 mg based on prescribing information) corresponds to 1 mg/kg/day in rats ([Nair and Jacob, 2016]). To measure hemodynamics in freely moving animals, ZSF1 obese rats were implanted with telemetry transmitters (HD-S10, Data Sciences International) at 9–10 weeks of age, as described above.
# The study included a 10-day pretreatment period and a 10-week treatment period. There were five groups of rats in the study. The lean ZSF1 control group (lean control, n=8) and one obese group (obese control, n=8) were fed normal chow and drinking water throughout the 10-day pretreatment period and the 10-week treatment period. Three groups of obese rats were treated with enalapril in drinking water (equivalent to 3 mg/kg/day) throughout the 10-day pretreatment period and the 10-week treatment period. During the treatment period, these enalapril-treated obese rats were administered normal chow (ENP, n=8) or chow containing olinciguat targeting the dose of 10 mg/kg/day (ENP+OLI10, n=8) or 30 mg/kg/day (ENP+OLI30, n=8). Blood and 24-h urine samples were obtained from all animals at baseline (immediately prior to initiation of enalapril treatment), the end of the 10-day pretreatment period (Day 10) and at week 5 and week 10 of the treatment period. Plasma samples were obtained from all olinciguat-treated animals for measurement of olinciguat exposure at week 10. During week 9 of treatment, rats were fasted for 16 h overnight prior to determination of fasting blood glucose using the AlphaTRAK (Abbott) glucose monitoring system. Body weight was measured once every other week. At the end of the study, rats were anesthetized and perfused via the left ventricle with heparinized PBS (1 U/ml heparin) containing IBMX (1 mM). Organs were collected and weighed, and plasma was collected in EDTA tubes. For serum, blood was collected in serum separator tubes, maintained at room temperature for at least 30 min and centrifuged at 6,000 rpm for 10 min, and then stored at −80°C until analysis. Urine and serum samples were analyzed using the Randox Daytona Clinical Chemistry Analyzer (Randox, Kearneysville, WV) for urine protein, serum cholesterol and serum triglycerides. All measurements were performed in accordance with manufacturer's instructions.
# For histology, one kidney from each rat was fixed in 10% formalin, then embedded in paraffin. Slides were prepared and stained with hematoxylin and eosin (H&E) and periodic-acid Schiff (PAS) for light microscopic analysis. Kidney sections were evaluated for the presence of glomerular pathology, tubular damage, interstitial inflammation, interstitial fibrosis, and vascular alterations. Severity-based scoring based on these evaluations was performed by a trained pathologist.
# For the ZSF1 experiment, data are expressed as mean ± standard error of the mean (SEM).
# In the ZSF1 study, change from baseline NT-proBNP, week 10 heart, kidney, and liver weight, urine volume, cholesterol, triglycerides, glucose, and renal histopathology sum score were analyzed by one-way ANOVA corrected for multiple comparisons using Tukey's method. Statistically significant differences vs the obese control and vs the ENP group are indicated in the results. MAP and UPE were analyzed by an ordinary two-way ANOVA with timepoint and treatment group as independent variables, followed by a Tukey's multiple comparisons test. Within each treatment group, significant differences vs baseline are indicated in the results. At week 10, statistically significant differences vs the obese control and vs the ENP control are also indicated in the results.
# obese ZSF1 rats [2] = tested on: obese ZSF1 rats; design: method as in Bilan et al., 2011; settings: 8-week old obese ZSF1 rats, enalapril 60 mg/kg/day in drinking water for 24 weeks; ref Bilan et al., 2011; cited from earlier work
# [3] = design: method as in Forgue et al., 2006; settings: healthy volunteers, after 10 days of dosing at 20 mg QD; ref Forgue et al., 2006; read-out: Cmax plasma concentration; cited from earlier work
# [4] = tested on: pulmonary artery smooth muscle from idiopathic pulmonary arterial hypertension (PAH) patients; design: method as in Yamamura et al., 2017; settings: ref Yamamura et al., 2017, read-out: IC50, inhibition of proliferation; cited from earlier work
# [5] = tested on: pulmonary artery smooth muscle from healthy subjects; design: method as in Yamamura et al., 2017; settings: ref Yamamura et al., 2017; cited from earlier work
# [6] = tested on: vascular smooth muscle cells (VSMC) from rat aorta; test: Rat aorta vascular smooth muscle cell proliferation (3H-thymidine incorporation); format: cell-based; settings: tadalafil alone at or below 10 µM; 5% FBS, 10 µM DETA
# Method: We explored the concentration response of olinciguat, tadalafil, and olinciguat in the presence of 1 μM tadalafil on rat aorta vascular smooth muscle proliferation, Tadalafil was used because it is a once-daily PDE5 inhibitor that, like the three-times-daily PDE5 inhibitor sildenafil, is approved for treatment of PAH and ED. Vascular smooth muscle cells (VSMC) from rat aorta (Lonza, R-ASM-580) were plated into a 96-well plate at 15,000 cells per well in DMEM:F12 containing 20% FBS and GA-1000 ([Gentamicin, Amphotericin B], Lonza, CC-40863) for 24 h at 37°C. Medium was removed and cells were washed once with 100 μl DMEM:F12 before adding 100 μl of DMEM:F12 and incubating for 24 h to induce quiescence. Cells were then cultured for 24 h in DMEM:F12 supplemented with 5% FBS, in the presence of test articles (vehicle, olinciguat, tadalafil) with 10 µM DETA. In the last 6 h, 0.2 μCi of ^3H-thymidine (American Radiolabeled Chemicals, ART 0178A) was added to each well to measure DNA synthesis by thymidine incorporation. Cells were washed once with HBSS and then trypsinized and transferred into FB filter plates (Millipore, MADVNOB). A rapid-filtration technique using a filtration apparatus (Millipore, MAVM0960R) with vacuum aspiration was used to harvest and rinse labeled cells (6× with 0.2 ml of chilled water). The radioactivity bound to the filters was counted with 80 µl of liquid scintillant (PerkinElmer, UltraGold MV, 6013159) in a scintillation counter (Perkin Elmer Microbeta instrument).
# In the vascular smooth muscle cell proliferation experiment, a comparison between the IC50's for olinciguat alone vs oliniciguat in the presence of 1 µM tadalafil was performed by a two-tailed t-test using Log EC50 best fit values and SEs determined from a four-parameter nonlinear curve fit, assuming n=60 degrees of freedom.
# [7] = design: method as in Tobin et al., 2018; settings: ref Tobin et al., 2018; cited from earlier work
structure (smiles),measurement,setting,value
"CCOC(=O)[C@H](CCc1ccccc1)N[C@@H](C)C(=O)N1CCC[C@H]1C(=O)O [ENP, reference compound]",MAP at Week 10,"obese ZSF1 rats [1]; obese ZSF1, enalapril 3 mg/kg/day in drinking water, obese control 122 ± 1",111 ± 1 mmHg
same,fasting blood glucose,"obese ZSF1 rats [1]; obese ZSF1, enalapril 3 mg/kg/day, week 9, obese control 279.4 ± 36.5",276.5 ± 30.9 mg/dL
same,change from baseline NT-proBNP,"obese ZSF1 rats [1]; obese ZSF1, enalapril 3 mg/kg/day, baseline to end of treatment, obese control +86 ± 22",+44 ± 28 pg/ml
same,total kidney weight,"obese ZSF1 rats [1]; obese ZSF1, enalapril 3 mg/kg/day, obese control 9.7 ± 0.2, lean 7.4 ± 0.07",9.5 ± 0.3 g/kg BW
same,renal pathology sum score,"obese ZSF1 rats [1]; obese ZSF1, enalapril 3 mg/kg/day, obese control 14.6 ± 0.2, p=0.025 vs obese control",12.2 ± 0.4
same,liver weight,"obese ZSF1 rats [1]; obese ZSF1, enalapril 3 mg/kg/day, obese control 72.0 ± 1.9",70.5 ± 1.1 g/kg BW
same,serum cholesterol at week 10,"obese ZSF1 rats [1]; obese ZSF1, enalapril 3 mg/kg/day, obese control 428.6 ± 12.7",383 ± 9.8 mg/dL
same,serum triglycerides at week 10,"obese ZSF1 rats [1]; obese ZSF1, enalapril 3 mg/kg/day, obese control 4913 ± 487.1",3850 ± 326.0 mg/dL
same,increase of proteinuria over 10-week treatment period,"obese ZSF1 rats [1]; obese ZSF1, enalapril alone 3 mg/kg/day, obese controls 153%",168%
same,"kidney weight, percent greater than in the lean control group",obese ZSF1 rats [1]; obese ZSF1 treated with enalapril,28%
same,reduction in MAP,obese ZSF1 rats [2],~ 50 mmHg
CN1CC(=O)N2[C@H](c3ccc4c(c3)OCO4)c3[nH]c4ccccc4c3C[C@@H]2C1=O [tadalafil],Cmax,[3],1000 nM
same,IC50,[4],4.5 µM
same,effect on proliferation,[5],no effect
same,inhibition of VSMC proliferation by tadalafil alone,[6],did not inhibit vascular smooth muscle cell proliferation; also recorded: did not inhibit VSMC proliferation
OC(CNc1nc(-c2cc(-c3ccon3)n(Cc3ccccc3F)n2)ncc1F)(C(F)(F)F)C(F)(F)F [praliciguat],volume of distribution,[7],10.5 L/kg
